Experiments:
[1] = biological target: T1, human recombinant serotonin (5-Hydroxytryptamine) 5-HT6 receptor (Homo sapiens, UniProt P50406); assay: Serotonin 5-HT6 radioligand binding assay ([3H]LSD); details: compound at 1 μM, HeLa cells, read-out: Percent Inhibition of ligand binding, Serotonin (1 μM) 5-HT6
T1 construct: expressed in transfected cells; host or cells: human HeLa cells
Procedure: (§1) Compounds of the invention were incubated with 1.5 nM [3H]Lysergic acid diethylamide (LSD) for 120 min at 37° C. […] Receptor proteins were filtered and washed, the filters were then counted to determine [3H]LSD specifically bound. Compounds were screened at 1 μM or lower, using 1% DMSO as vehicle. Biochemical assay results are presented as the percent inhibition of specific binding in Table 4.

[2] = biological target: T2, human recombinant histamine H2 receptor (Homo sapiens, UniProt P25021); assay: Histamine H2 radioligand binding assay ([125I]Aminopotentidine); details: compound at 1 μM; 0.1 nM [125I]Aminopotentidine; receptor expressed in CHO-K1 cells
T2 construct: expressed in transfected cells; host or cells: Chinese hamster ovary (CHO) K1 cells
T2 sequence (P25021 whole entry): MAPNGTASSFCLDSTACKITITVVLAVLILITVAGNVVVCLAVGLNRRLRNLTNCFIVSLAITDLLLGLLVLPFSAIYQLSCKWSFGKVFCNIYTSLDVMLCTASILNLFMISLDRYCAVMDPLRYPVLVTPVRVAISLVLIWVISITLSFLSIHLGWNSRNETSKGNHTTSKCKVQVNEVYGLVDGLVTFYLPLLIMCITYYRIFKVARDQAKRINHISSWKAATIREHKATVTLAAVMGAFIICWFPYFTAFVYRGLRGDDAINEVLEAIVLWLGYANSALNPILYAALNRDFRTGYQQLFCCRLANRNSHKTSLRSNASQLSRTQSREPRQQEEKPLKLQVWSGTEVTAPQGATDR
Procedure: To evaluate in radioligand binding assays the activity of compounds of the invention, human recombinant histamine H2 receptor expressed in Chinese hamster ovary (CHO) K1 cells (Ruat, M., Proc. Natl. Acad. Sci. USA. 87(5):1658, 1990) in a 50 mM Phosphate buffer, pH 7.4 was used. Compounds of the invention were incubated with 0.1 nM [^125I]Aminopotentidine for 120 min at 25° C. Non-specific binding was estimated in the presence of 3 μM Tiotidine. Receptor proteins were filtered and washed, the filters were then counted to determine [^125I]Aminopotentidine specifically bound. Compounds were screened at 1 μM or lower, using 1% DMSO as vehicle. Biochemical assay results are presented as the percent inhibition of specific binding in Table 2.

[3] = biological target: T3, human recombinant serotonin (5-Hydroxytryptamine) 5-HT2A receptor (Homo sapiens, UniProt P28223); assay: Serotonin 5-HT2A radioligand binding assay ([3H]Ketanserin); details: compound at 1 μM; 0.5 nM [3H]Ketanserin; CHO-K1 cells; read-out: Percent Inhibition of ligand binding, Serotonin (1 μM) 5-HT2A
T3 construct: expressed in transfected cells; host or cells: Chinese hamster ovary (CHO-K1) cells
T3 sequence (P28223 whole entry): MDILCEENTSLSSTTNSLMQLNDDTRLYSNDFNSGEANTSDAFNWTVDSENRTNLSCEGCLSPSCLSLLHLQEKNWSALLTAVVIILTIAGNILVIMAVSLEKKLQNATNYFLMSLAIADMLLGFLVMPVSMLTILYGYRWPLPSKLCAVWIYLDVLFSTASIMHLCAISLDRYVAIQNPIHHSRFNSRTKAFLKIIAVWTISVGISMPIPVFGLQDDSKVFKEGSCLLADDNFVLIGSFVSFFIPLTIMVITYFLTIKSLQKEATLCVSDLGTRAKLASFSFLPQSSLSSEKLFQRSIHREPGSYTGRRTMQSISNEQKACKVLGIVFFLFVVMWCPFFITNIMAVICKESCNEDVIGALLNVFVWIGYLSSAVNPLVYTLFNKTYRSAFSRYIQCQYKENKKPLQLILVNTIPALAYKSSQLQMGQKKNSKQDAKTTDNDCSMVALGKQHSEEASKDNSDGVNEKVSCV
Procedure: (§2) Compounds of the invention were incubated with 0.5 nM [^3H]Ketanserin for 60 min at 25° C. Non-specific binding was estimated in the presence of 1 μM Mianserin. Receptor proteins were filtered and washed, the filters were then counted to determine [^3H]Ketanserin specifically bound. Compounds were screened at 1 μM or lower, using 1% DMSO as vehicle. Biochemical assay results are presented as the percent inhibition of specific binding in Table 4.

[4] = biological target: human recombinant histamine H1 receptor (Homo sapiens, UniProt P35367); assay: Histamine H1 radioligand binding assay ([3H]Pyrilamine); details: compound at 1 μM, receptor expressed in CHO cells
human recombinant histamine H1 receptor, sequence (P35367 whole entry): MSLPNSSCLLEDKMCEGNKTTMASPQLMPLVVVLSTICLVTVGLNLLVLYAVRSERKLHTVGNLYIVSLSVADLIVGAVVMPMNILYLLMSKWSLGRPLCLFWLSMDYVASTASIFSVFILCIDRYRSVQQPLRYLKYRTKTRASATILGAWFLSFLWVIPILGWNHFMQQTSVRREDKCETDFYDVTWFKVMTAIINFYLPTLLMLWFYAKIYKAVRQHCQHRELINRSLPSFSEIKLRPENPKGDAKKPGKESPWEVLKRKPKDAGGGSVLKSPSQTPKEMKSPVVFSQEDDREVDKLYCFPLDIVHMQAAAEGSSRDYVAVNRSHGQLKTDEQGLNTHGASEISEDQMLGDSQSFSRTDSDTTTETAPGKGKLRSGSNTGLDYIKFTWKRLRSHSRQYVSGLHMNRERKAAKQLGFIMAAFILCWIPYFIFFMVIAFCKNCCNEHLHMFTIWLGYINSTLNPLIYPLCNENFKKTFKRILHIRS
Procedure: To evaluate in radioligand binding assays the activity of compounds of the invention, human recombinant histamine H1 receptor expressed in Chinese hamster ovary (CHO) cells (De Backer, M. D. et al., Biochem. Biophys. Res. Comm. 197(3):1601, 1993) in a modified Tris-HCl buffer (50 mM Tris-HCl, pH 7.4, 2 mM MgCl2, 100 mM NaCl, 250 mM Sucrose) was used. Compounds of the invention were incubated with 1.2 nM [^3H]Pyrilamine for 180 min at 25° C. Non-specific binding was estimated in the presence of 1 μM pyrilamine Receptor proteins were filtered and washed, the filters were then counted to determine [^3H]Pyrilamine specifically bound. Compounds were screened at 1 μM or lower, using 1% DMSO as vehicle. Biochemical assay results are presented as the percent inhibition of specific binding in Table 2.

[5] = biological target: human recombinant dopamine D2L receptor (Homo sapiens, UniProt P14416); assay: Dopamine D2L radioligand binding assay ([3H]Spiperone); details: compound at 1 μM, 0.16 nM [3H]Spiperone, CHO cells, read-out: Percent Inhibition of ligand binding, Dopamine (1μM)
human recombinant dopamine D2L receptor, sequence (P14416 whole entry): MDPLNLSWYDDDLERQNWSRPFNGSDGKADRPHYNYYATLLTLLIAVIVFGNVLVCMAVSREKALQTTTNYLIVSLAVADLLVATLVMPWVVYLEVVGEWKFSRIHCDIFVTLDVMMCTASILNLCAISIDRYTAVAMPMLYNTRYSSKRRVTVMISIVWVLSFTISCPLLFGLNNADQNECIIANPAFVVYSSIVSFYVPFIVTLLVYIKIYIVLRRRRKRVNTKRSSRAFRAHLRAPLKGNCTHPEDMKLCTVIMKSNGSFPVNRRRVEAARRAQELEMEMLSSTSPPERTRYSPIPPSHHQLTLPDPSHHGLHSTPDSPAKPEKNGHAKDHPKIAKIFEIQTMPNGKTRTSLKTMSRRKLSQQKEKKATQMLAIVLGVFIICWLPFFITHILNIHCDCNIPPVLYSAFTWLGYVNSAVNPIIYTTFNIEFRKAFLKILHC
Procedure: Compounds of the invention were incubated with 0.16 nM [^3H]Spiperone for 120 min at 25° C. Non-specific binding was estimated in the presence of 10 μM Haloperidol. Receptor proteins were filtered and washed, the filters were then counted to determine [^3H]Spiperone specifically bound. Compounds were screened at 1 μM or lower, using 1% DMSO as vehicle. Biochemical assay results are presented as the percent inhibition of specific binding in Table 3.

[6] = biological target: T4, human recombinant serotonin (5-Hydroxytryptamine) 5-HT2C receptor (Homo sapiens, UniProt P28335); assay: Serotonin 5-HT2C radioligand binding assay ([3H]Mesulergine); details: compound at 1 μM; 1 nM [3H]Mesulergine; CHO-K1 cells; read-out: Percent Inhibition of ligand binding, Serotonin (1 μM) 5-HT2C
T4 construct: expressed in transfected cells; host or cells: Chinese hamster ovary (CHO-K1) cells
T4 sequence (P28335 33-458): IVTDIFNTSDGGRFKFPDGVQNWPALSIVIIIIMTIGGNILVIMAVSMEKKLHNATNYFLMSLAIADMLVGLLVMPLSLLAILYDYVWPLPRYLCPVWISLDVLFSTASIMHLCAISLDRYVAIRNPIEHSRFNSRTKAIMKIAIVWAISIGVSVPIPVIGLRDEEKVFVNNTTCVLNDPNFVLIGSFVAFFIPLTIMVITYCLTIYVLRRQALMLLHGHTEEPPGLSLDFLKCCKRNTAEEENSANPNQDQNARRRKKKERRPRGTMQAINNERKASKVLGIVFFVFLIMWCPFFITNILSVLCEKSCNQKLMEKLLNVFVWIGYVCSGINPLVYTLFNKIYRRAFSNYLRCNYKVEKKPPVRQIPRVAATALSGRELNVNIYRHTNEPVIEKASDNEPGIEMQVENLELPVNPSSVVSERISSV
Procedure: as §2, with “1” for “0.5”, “[^3H]Mesulergine” for “[^3H]Ketanserin”

[7] = biological target: human recombinant serotonin (5-Hydroxytryptamine) 5-HT7 receptor (Homo sapiens, UniProt P34969); assay: Serotonin 5-HT7 radioligand binding assay ([3H]LSD); details: compound at 1 μM; 5.5 nM [3H]LSD; CHO cells; read-out: Percent Inhibition of ligand binding, Serotonin (1 μM) 5-HT7
human recombinant serotonin (5-Hydroxytryptamine) 5-HT7 receptor, sequence (P34969 whole entry): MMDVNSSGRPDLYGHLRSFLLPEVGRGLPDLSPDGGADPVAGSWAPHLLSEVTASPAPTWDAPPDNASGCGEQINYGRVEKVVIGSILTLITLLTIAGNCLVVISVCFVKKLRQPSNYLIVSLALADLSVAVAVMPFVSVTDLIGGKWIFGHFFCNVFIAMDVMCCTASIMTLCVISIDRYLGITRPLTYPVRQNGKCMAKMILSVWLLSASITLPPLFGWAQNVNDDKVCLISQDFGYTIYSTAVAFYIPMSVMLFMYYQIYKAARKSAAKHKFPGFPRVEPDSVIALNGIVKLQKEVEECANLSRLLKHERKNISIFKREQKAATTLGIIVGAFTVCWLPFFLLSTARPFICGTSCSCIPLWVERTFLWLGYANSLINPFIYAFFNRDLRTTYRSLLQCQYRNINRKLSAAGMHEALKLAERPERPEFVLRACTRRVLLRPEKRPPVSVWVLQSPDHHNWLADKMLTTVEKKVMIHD
Procedure: as §1, with “of” for “of the”, “5.5” for “1.5”, “[^3H] Lysergic” for “[3H]Lysergic”, “2 h” for “120 min”, “25°” for “37°”, “[^3H]LSD” for “[3H]LSD”

T1 sequence (P50406 whole entry): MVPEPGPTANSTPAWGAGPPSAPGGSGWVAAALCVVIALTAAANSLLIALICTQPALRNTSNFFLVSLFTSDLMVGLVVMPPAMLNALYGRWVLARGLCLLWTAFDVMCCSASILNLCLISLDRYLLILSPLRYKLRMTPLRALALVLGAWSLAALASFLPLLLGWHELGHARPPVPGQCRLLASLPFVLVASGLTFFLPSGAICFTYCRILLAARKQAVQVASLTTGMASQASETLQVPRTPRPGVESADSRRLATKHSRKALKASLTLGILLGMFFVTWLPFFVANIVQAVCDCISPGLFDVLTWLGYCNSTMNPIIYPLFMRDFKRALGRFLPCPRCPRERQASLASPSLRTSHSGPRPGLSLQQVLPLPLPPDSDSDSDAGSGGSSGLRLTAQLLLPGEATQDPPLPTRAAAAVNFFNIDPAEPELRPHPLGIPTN

Cc1ccc2c(c1)c1c(n2CCc2ccc(C)nc2)CCN(CCCCO)C1 [Compound 1-43, 4-(8-methyl-5-(2-(6-methylpyridin-3-yl)ethyl)-3,4-dihydro-1H-pyrido[4,3-b]indol-2(5H)-yl)butan-1-ol]
inhibition at 1 µM [1]: 22% | inhibition at 1 µM [2]: 21% | inhibition at 1 µM [3]: 47% | inhibition at 1 µM [4]: 97% | inhibition at 1 µM [5]: 10% | inhibition at 1 µM [6]: 49% | inhibition at 1 µM [7]: 66%
